The test system of test [1] is HCT-116 colon carcinoma. The experiment in a line: Inhibition of in vitro cell proliferation (HCT116).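 Also: cells exposed to compound for 24 h, then 14C-thymidine added for a further 24 h and its uptake into DNA counted by scintillation, DMSO-only wells as control.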 The following applies: Homo sapiens, HCT-116, 14C-thymidine incorporation. Format: cell-based, human.
In test [2] the test system is A375 malignant melanoma. The test is described as follows: Inhibition of in vitro cell proliferation (A375).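 Also: cells plated for 24 h, given compound for 24 h, then labelled with 14C-thymidine for another 24 h, with DMSO-only wells as control and counts read by scintillation.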 It counts as cell-based, human. The settings on record: Homo sapiens, A-375, 14C-thymidine incorporation. On the technique in general: Dividing cells build labelled thymidine or BrdU into new DNA.
Test [3] concerns HeLa cervical adenocarcinoma. The experiment in a line: Inhibition of in vitro cell proliferation (HeLa).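 Also: cells exposed to compound for 24 h, then labelled 24 h with methyl 14C-thymidine, with uptake into DNA counted by scintillation against DMSO-only control wells.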 The settings on record: Homo sapiens, 14C-thymidine incorporation. Format: cell-based, human.
Test [4] concerns the target T1, murine Aurora-A (Mus musculus, UniProt P97477).
T1 construct: replaced with the full length protein encoding the murine Aurora-A; made in house; host or cells: sf9 insect cells
T1 sequence (P97477 1-395): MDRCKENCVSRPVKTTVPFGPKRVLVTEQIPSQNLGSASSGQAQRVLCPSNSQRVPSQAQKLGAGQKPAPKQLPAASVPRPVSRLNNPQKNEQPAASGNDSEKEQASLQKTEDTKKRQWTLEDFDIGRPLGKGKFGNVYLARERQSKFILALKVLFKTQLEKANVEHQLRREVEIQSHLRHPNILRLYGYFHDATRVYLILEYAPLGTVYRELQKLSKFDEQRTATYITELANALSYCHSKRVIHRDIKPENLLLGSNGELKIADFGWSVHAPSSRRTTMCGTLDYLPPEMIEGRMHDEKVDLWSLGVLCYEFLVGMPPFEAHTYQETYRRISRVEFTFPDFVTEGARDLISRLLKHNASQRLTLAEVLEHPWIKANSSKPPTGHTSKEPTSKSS
The test is described as follows: Aurora-A Screening Assay. It counts as biochemical. As to the method: (§1) A kinase reaction mixture was prepared containing 50 mM Tris-HCl pH=8, 10 mM MgCl2, 0.1 mM Na3PO4, 1 mM DTT, 10 μM ATP, 0.025 μM biotinylated histone-H1 peptide substrate and 0.2 μCuries per well ^33P-γ-ATP (2000-3000 Ci/mmol). 70 μL of the kinase reaction mixture was dispensed into the well of a streptavidin coated FlashPlate™ (Cat. # SMP103, NEN, Boston, Mass.). Then 1 μL of test compound stock in 100% DMSO was added to the wells resulting in a final concentration of 1% DMSO in the reaction with a 100 μL final reaction volume.
(§2) The CDK1:Cyclin-B protein was diluted in 50 mM Tris-HCl pH=8.0, 0.1% BSA at a concentration of 1 ng per μL and 30 μL (30 ng enzyme per test well) was added to each well to initiate the reaction. The reaction was incubated for one hour at 30° C. At the end of the 1 hour incubation, the reaction was terminated by aspirating the mixture from the plate and washing the wells twice with PBS containing 100 mM EDTA. The histone-H1 biotinylated peptide substrate became immobilized on the Flashplate™ and the incorporation of ^33P-γ-ATP was measured by reading the plate on a scintillation counter. Inhibition of the enzymatic activity of CDK1 was measured by observing a reduced amount of ^33P-γ-ATP incorporated into the immobilized peptide.
The Aurora-A kinase assay was carried out using the CDK kinase assay procedure except that the enzyme was replaced with the full length protein encoding the murine Aurora-A (Accession #GB BC014711) expressed and purified from sf9 insect cells.

Test [5] has as its target T2, CDK1:Cyclin-B (Homo sapiens, UniProt P06493).
T2 construct: purchased New England Biolabs, Beverly, Mass; 6020; host or cells: insect cells
The experiment in a line: CDK1 Screening Assay. Format: biochemical. As to the method:
as §1, §2
The CDK1 used was isolated from insect cells expressing both the human CDK1 catalytic subunit and its positive regulatory subunit cyclin B (New England Biolabs, Beverly, Mass., Cat. #6020).

In test [6] the target is T3, HER2 cytoplasmic domain (Homo sapiens, UniProt P04626).
T3 construct: polyhistidine (N)
T3 sequence (P04626 676-1255 limits assumed): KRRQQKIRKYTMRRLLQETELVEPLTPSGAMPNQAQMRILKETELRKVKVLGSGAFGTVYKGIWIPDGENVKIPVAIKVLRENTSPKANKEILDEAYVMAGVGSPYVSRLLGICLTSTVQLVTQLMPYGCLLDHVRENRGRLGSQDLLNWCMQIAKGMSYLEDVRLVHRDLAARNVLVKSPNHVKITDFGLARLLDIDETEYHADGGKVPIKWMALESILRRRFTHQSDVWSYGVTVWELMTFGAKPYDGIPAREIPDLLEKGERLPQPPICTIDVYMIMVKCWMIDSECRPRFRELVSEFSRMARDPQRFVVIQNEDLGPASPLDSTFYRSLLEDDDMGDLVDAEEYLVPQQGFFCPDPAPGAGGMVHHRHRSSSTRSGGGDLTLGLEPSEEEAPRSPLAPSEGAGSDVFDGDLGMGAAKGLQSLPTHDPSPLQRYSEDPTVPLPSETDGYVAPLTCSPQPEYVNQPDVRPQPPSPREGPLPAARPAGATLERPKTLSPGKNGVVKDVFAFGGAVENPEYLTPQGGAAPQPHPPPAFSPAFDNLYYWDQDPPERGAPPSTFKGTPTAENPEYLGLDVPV
The experiment in a line: HER2 Kinase Screening Assay. The settings on record: > means no observed 50% inhibition at the indicated test concentration; ~ means approximately 50% inhibition at that concentration. It counts as biochemical. Here is the method:
as §1, §2
The HER2 kinase assay was carried out using the CDK kinase assay procedure except that the enzyme was replaced with a HER2 construct containing a polyhistidine tag at the N-terminus followed by 24 additional amino acids and the HER2 cytoplasmic domain beginning at amino acid 676 (Accession #M11730) to the end.

Test [7] deals with T4, rat VEGF-R2 kinase domain (Rattus norvegicus, UniProt O08775).
T4 construct: amino acids 786-1343 of the rat VEGF-R2 kinase domain; polyhistidine (N)
T4 sequence (O08775 786-1343): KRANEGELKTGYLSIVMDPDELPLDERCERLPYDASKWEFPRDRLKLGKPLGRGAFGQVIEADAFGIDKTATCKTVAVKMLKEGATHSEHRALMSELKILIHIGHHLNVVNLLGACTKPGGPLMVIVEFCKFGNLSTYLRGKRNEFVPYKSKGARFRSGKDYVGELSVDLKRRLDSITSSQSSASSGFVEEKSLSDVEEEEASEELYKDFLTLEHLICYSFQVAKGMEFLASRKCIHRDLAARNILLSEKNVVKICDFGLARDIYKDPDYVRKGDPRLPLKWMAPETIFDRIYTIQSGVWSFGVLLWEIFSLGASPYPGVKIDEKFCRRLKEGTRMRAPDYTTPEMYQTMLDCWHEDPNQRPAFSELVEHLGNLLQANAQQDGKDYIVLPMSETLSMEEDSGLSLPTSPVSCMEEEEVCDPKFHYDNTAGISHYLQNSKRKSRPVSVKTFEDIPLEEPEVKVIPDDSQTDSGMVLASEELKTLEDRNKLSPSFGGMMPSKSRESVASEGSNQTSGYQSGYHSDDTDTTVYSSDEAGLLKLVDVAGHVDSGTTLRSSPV
The experiment in a line: VEGF-R2 Screening Assay. Format: biochemical.

Where [8] appears, read: > means no observed 50% inhibition at the indicated test concentration, ~ means approximately 50% inhibition at that concentration, read-out: IC50 VEGF-R2.

Like-named read-outs stand apart in the source and are kept apart here.

T2 sequence (P06493 whole entry): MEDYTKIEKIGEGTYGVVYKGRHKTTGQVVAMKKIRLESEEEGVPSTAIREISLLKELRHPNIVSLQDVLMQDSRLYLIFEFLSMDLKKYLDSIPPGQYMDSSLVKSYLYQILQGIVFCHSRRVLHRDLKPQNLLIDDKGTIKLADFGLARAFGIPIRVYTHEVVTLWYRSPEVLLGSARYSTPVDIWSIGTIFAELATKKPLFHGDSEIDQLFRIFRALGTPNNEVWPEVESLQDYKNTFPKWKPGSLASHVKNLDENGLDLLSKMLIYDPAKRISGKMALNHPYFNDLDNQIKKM
T2 sequence (P14635 whole entry partner): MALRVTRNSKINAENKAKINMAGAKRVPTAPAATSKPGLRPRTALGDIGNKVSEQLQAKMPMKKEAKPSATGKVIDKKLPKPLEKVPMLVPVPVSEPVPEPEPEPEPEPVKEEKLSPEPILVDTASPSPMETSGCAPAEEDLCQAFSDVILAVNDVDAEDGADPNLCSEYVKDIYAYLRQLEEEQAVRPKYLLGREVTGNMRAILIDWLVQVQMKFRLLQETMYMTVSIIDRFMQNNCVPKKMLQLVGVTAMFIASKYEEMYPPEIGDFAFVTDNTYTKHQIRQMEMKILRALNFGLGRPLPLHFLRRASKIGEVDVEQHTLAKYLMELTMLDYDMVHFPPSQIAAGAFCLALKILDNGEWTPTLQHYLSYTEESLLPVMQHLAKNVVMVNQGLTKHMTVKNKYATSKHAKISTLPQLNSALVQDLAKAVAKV

For the molecule `CON=Cc1c(N)ncnc1Oc1ccc(NC(=O)Nc2nccs2)c(Cl)c1` [Cpd 91, 1-{4-[6-amino-5-(methoxyimino-methyl)-pyrimidin-4-yloxy]-2-chloro-phenyl}-3-thiazol-2-yl-urea], the IC50 (as a rule, the midpoint of a concentration-inhibition curve) in test [1] was 3.04 µM; in test [2], 0.929 µM; in test [3] it was 3.24 µM; in test [4], more than 10 µM; in test [5], more than 100 µM; in test [6] it was more than 1 µM. Besides, the half-inhibitory concentration (IC50) in test [7] (setting [8]) was 0.0034 µM.

For `CON=Cc1c(N)ncnc1Oc1ccc2c(c1)cc(C)n2C(=O)NCCO` [Cpd 39, 5-[6-amino-5-(methoxyimino-methyl)-pyrimidin-4-yloxy]-2-methyl-indole-1-carboxylic acid (2-hydroxy-ethyl)-amide], the IC50 was 3.43 µM in test [1]; 3.77 µM in test [2]; 4.37 µM in test [3]; more than 100 µM in test [4]; more than 100 µM in test [5]; more than 10 µM in test [6]. Moreover, the IC50 in test [7] (setting [8]) turned out to be 0.108 µM.

As for `Cc1cc2c(F)c(Oc3ncnc(N)c3C=NOCCCCO)ccc2[nH]1` [Cpd 38, 4-amino-6-(4-fluoro-2-methyl-1H-indol-5-yloxy)-pyrimidine-5-carbaldehyde O-(4-hydroxy-butyl)-oxime], the 50% inhibitory concentration (IC50) in test [1] was 2.34 µM; in test [2], 0.618 µM; in test [3] it was 1.83 µM; in test [4], more than 100 µM; in test [5] it was more than 100 µM; in test [6], 0.868 µM. Further, the half-maximal inhibitory concentration (IC50) in test [7] (setting [8]) was 0.0577 µM.

`CON=Cc1c(N)ncnc1Oc1ccc(NC(=O)NC2CC2)c(Cl)c1` [Cpd 85, 1-{4-[6-amino-5-(methoxyimino-methyl)-pyrimidin-4-yloxy]-2-chloro-phenyl}-3-cyclopropyl-urea]: the half-inhibitory concentration (IC50) was more than 100 µM in test [1]; more than 10 µM in test [2]; more than 100 µM in test [3]; more than 100 µM in test [4]; more than 100 µM in test [5]; more than 100 µM in test [6]. The IC50 in test [7] (setting [8]) turned out to be 0.029 µM.

In the case of `CON=Cc1c(N)ncnc1Oc1ccc(NC(=O)Nc2ccccc2)c(Cl)c1` [Cpd 54, 1-{4-[6-amino-5-(methoxyimino-methyl)-pyrimidin-4-yloxy]-2-chloro-phenyl}-3-phenyl-urea], the half-maximal inhibitory concentration (IC50) in test [1], in test [2], in test [3], in test [4], in test [5] and in test [6] was more than 100 µM each time. For the same molecule, the concentration for half-maximal inhibition (IC50) in test [7] (setting [8]) amounted to 0.003 µM.

With `CCCNC(=O)Nc1ccc(Oc2ncnc(N)c2C=NOC)cc1Cl` [Cpd 52, 1-{4-[6-amino-5-(methoxyimino-methyl)-pyrimidin-4-yloxy]-2-chloro-phenyl}-3-propyl-urea], the IC50 is more than 1 µM in test [1]; more than 1 µM in test [2]; more than 1 µM in test [3]; more than 100 µM in test [4]; more than 100 µM in test [5]; more than 100 µM in test [6]. Further, the midpoint of inhibition in test [7] (IC50 VEGF-R2), the IC50, lay at 0.0275 µM.

Regarding `CON=Cc1c(N)ncnc1Oc1ccc(NC(=O)NC2CCCCC2)c(Cl)c1` [Cpd 65, 1-{4-[6-amino-5-(methoxyimino-methyl)-pyrimidin-4-yloxy]-2-chloro-phenyl}-3-cyclohexyl-urea], the IC50 is more than 100 µM in test [1]; more than 100 µM in test [2]; more than 100 µM in test [3]; more than 100 µM in test [4]; more than 100 µM in test [5]; more than 10 µM in test [6]. Also, in test [7] (setting [8]), the IC50 is 0.0065 µM.

As for `CON=Cc1c(N)ncnc1Oc1ccc(NC(=O)Nc2nc(C)cs2)c(Cl)c1` [Cpd 89, 1-{4-[6-amino-5-(methoxyimino-methyl)-pyrimidin-4-yloxy]-2-chloro-phenyl}-3-(4-methyl-thiazol-2-yl)-urea], the half-maximal inhibitory concentration (IC50) in test [1] was more than 10 µM; in test [2], 2.19 µM; in test [3], more than 10 µM; in test [4] it was more than 100 µM; in test [5] it was more than 100 µM; in test [6], more than 1 µM. In test [7] (setting [8]), the IC50 is 0.0039 µM.

In the case of `Cc1cc2c(F)c(Oc3ncnc(N)c3C=NOCCCN3CCNCC3)ccc2[nH]1` [Cpd 21, 4-amino-6-(4-fluoro-2-methyl-1H-indol-5-yloxy)-pyrimidine-5-carbaldehyde O-(3-piperazin-1-yl-propyl)-oxime], the 50% inhibitory concentration (IC50) in test [1] is 68.1 µM; in test [2] it was 11.2 µM; in test [3] it was 24.5 µM; in test [4], more than 10 µM; in test [5], more than 100 µM; in test [6], 0.767 µM. In addition, in test [7] (setting [8]), the IC50 stood at 0.036 µM.

Turning to `Cc1cc2c(F)c(Oc3ncnc(N)c3C=NOCCCCN3CCCC3)ccc2[nH]1` [Cpd 25, 4-amino-6-(4-fluoro-2-methyl-1H-indol-5-yloxy)-pyrimidine-5-carbaldehyde O-(4-pyrrolidin-1-yl-butyl)-oxime], the half-maximal inhibitory concentration (IC50) was 0.1 µM in test [1]; more than 100 µM in test [2]; more than 100 µM in test [3]; more than 10 µM in test [4]; more than 100 µM in test [5]; 0.596 µM in test [6]. Also, in test [7] (setting [8]), the IC50 was 0.13 µM.

On to `Cc1cc2c(F)c(Oc3ncnc(N)c3C=NOCC3CC3)ccc2[nH]1` [Cpd 32, 4-amino-6-(4-fluoro-2-methyl-1H-indol-5-yloxy)-pyrimidine-5-carbaldehyde O-cyclopropylmethyl-oxime], for which the IC50 in test [1] was 0.333 µM; in test [2], 0.07 µM; in test [3], 0.324 µM; in test [4], more than 100 µM; in test [5], more than 100 µM; in test [6], more than 100 µM. Moreover, the IC50 in test [7] (setting [8]) amounted to 0.046 µM.

In the case of `CNC(=O)Nc1ccc(Oc2ncnc(N)c2C=NOC)c(Cl)c1` [Cpd 70, 1-{4-[6-amino-5-(methoxyimino-methyl)-pyrimidin-4-yloxy]-3-chloro-phenyl}-3-methyl-urea], the IC50 in test [1] was 4.86 µM; in test [2], 2.55 µM; in test [3], 4.06 µM; in test [4], more than 10 µM; in test [5], more than 100 µM; in test [6], more than 100 µM. For the same molecule, the IC50 in test [7] (setting [8]) worked out at 0.278 µM.

Regarding `CON=Cc1c(N)ncnc1Oc1ccc(NC(=O)NCCCCN2CCCC2)c(Cl)c1` [Cpd 84, 1-{4-[6-amino-5-(methoxyimino-methyl)-pyrimidin-4-yloxy]-2-chloro-phenyl}-3-(4-pyrrolidin-1-yl-butyl)-urea], the half-inhibitory concentration (IC50) in test [1] was more than 10 µM; in test [2], more than 1 µM; in test [3], more than 10 µM; in test [4], more than 10 µM; in test [5], more than 100 µM; in test [6], more than 10 µM. The concentration for half-maximal inhibition (IC50) in test [7] (setting [8]) was found to be 0.759 µM.

As to `CON=Cc1c(N)ncnc1Oc1ccc2c(c1)cc(C)n2C(=O)NCCCCN1CCCC1` [Cpd 42, 5-[6-amino-5-(methoxyimino-methyl)-pyrimidin-4-yloxy]-2-methyl-indole-1-carboxylic acid (4-pyrrolidin-1-yl-butyl)-amide], the IC50 in test [1] was more than 10 µM; in test [2], more than 1 µM; in test [3], more than 10 µM; in test [4], more than 100 µM; in test [5] it was more than 100 µM; in test [6] it was more than 10 µM. Moreover, in test [7] (setting [8]), the half-inhibitory concentration (IC50) came to 0.0542 µM.

For the origin of these results see patent publication US8013153B2, “Substituted pyrimidine kinase inhibitors” (Janssen Pharmaceutica, N.V., priority 2006, dated 2011).
